# Conditions: human, in vivo, iv
# Experimental: The kinetics of the glucose infusion was studied to characterize how effectively the volunteers handled the glucose molecules as well as the accompanying water volume. […] 2003, 90, 600-607, in which the plasma concentration of glucose above baseline (C) at any time (t) resulting from the infusion rate ki is calculated by using the following differential equation: (dC)/(dt) = (ki -(CL×C(t)))/(Vd) [formula] in which Vd is the volume of distribution and CL is the glucose clearance.
# The data were normally distributed and thus results were expressed as the mean and standard deviation (SD). Correlations were evaluated by linear regression analysis. P < 0.05 was considered statistically significant.
substance,measurement,value
D-glucose,"Vd, volume of distribution of exogenous glucose",15.52 L
